Measured values published in patent US20220289708A1, “SUBSTITUTED N-PHENYL URACILS, SALTS THEREOF AND THEIR USE AS HERBICIDAL AGENTS” (Bayer Aktiengesellschaft, priority 2019, published 2022).

Tests used:
Format in all cases: in vivo
Matricaria inodora = test: Post-emergence herbicidal action; details: application rate 20 g/ha, rated visually after about 3 weeks vs untreated controls
Description: (§1) a. Post-Emergence Herbicidal Action and Crop Plant Compatibility Seeds of monocotyledonous and dicotyledonous weeds and crop plants were placed in sandy loam in plastic or wood-fiber pots, covered with soil and cultivated in a greenhouse under controlled growth conditions. 2 to 3 weeks after sowing, the test plants were treated at the one-leaf stage. The compounds of the invention, formulated in the form of wettable powders (WP) or as emulsion concentrates (EC), were then sprayed onto the green parts of the plants as aqueous suspension or emulsion with addition of 0.5% additive at a water application rate of 600 l/ha (converted). After the test plants had been kept in the greenhouse under optimum growth conditions for about 3 weeks, the activity of the preparations was rated visually in comparison to untreated controls. For example, 100% activity=the plants have died, 0% activity=like control plants. Tables A1 to A15 below show the effects of selected compounds of the general formula (I) according to Tables I.1 to I.36 on various harmful plants and at an application rate corresponding to 20 g/ha and less, which were obtained by the experimental procedure mentioned above.

Setaria viridis = test: Post-emergence herbicidal action; details: application rate 20 g/ha, rated visually after about 3 weeks vs untreated controls
Description: as §1

Pharbitis purpurea = test: Post-emergence herbicidal action; details: application rate 20 g/ha, rated visually after about 3 weeks vs untreated controls
Description: as §1

Lolium rigidum = test: Post-emergence herbicidal action; details: application rate 20 g/ha, rated visually after about 3 weeks vs untreated controls
Description: as §1

Amaranthus retroflexus = test: Post-emergence herbicidal action; details: application rate 20 g/ha, rated visually after about 3 weeks vs untreated controls
Description: as §1

Abutilon theophrasti = test: Post-emergence herbicidal action; details: application rate 20 g/ha, rated visually after about 3 weeks vs untreated controls
Description: as §1

Viola tricolor = test: Post-emergence herbicidal action; details: application rate 20 g/ha
Description: as §1

Echinochloa crus-galli = test: Post-emergence herbicidal action; details: application rate 20 g/ha, rated visually after about 3 weeks vs untreated controls
Description: as §1

Veronica persica = test: Post-emergence herbicidal action; details: application rate 20 g/ha
Description: as §1

Alopecurus myosuroides = test: Post-emergence herbicidal action; details: application rate 20 g/ha, rated visually after about 3 weeks vs untreated controls
Description: as §1

Digitaria sanguinalis = test: Post-emergence herbicidal action; details: application rate 20 g/ha, rated visually after about 3 weeks vs untreated controls
Description: as §1

Oryza sativa = test: Post-emergence crop plant compatibility
Description: a. Post-Emergence Herbicidal Action and Crop Plant Compatibility
as §1, with “Seeds” for “a. Post-Emergence Herbicidal Action and Crop Plant Compatibility Seeds”, “plants.” for “plants. Tables A1 to A15 below show the effects of selected compounds of the general formula (I) according to Tables I.1 to I.36 on various harmful plants and at an application rate corresponding to 20 g/ha and less, which were obtained by the experimental procedure mentioned above.”
Tables A16 to A19 below show the crop plant compatibilities of selected compounds of the general formula (I) according to Tables I.1 to I.36 at an application rate corresponding to 5 g/ha or 20 g/ha, which were obtained in experiments according to the experimental procedure mentioned above. Here, the observed effects on selected crop plants are stated in comparison to the untreated controls (values in %).

Polygonum convolvulus = test: Post-emergence herbicidal action; details: application rate 20 g/ha
Description: as §1

Avena fatua = test: Post-emergence herbicidal action; details: application rate 20 g/ha, rated visually after about 3 weeks vs untreated controls
Description: as §1

Row | Structure (SMILES) | Matricaria inodora (efficacy in %) (Matricaria inodora) [%] | Setaria viridis (efficacy in %) (Setaria viridis) [%] | Pharbitis purpurea (efficacy in %) (Pharbitis purpurea) [%] | Lolium rigidum (efficacy in %) (Lolium rigidum) [%] | Amaranthus retroflexus (efficacy in %) (Amaranthus retroflexus) [%] | Abutilon theophrasti (efficacy in %) (Abutilon theophrasti) [%] | Viola tricolor (efficacy in %) (Viola tricolor) [%] | Echinochloa crus-galli (efficacy in %) (Echinochloa crus-galli) [%] | Veronica persica (efficacy in %) (Veronica persica) [%] | Alopecurus myosuroides (efficacy in %) (Alopecurus myosuroides) [%] | Digitaria sanguinalis (efficacy in %) (Digitaria sanguinalis) [%] | Oryza sativa (efficacy in %) (Oryza sativa; application rate 20 g/ha) [%] | Polygonum convolvulus (efficacy in %) (Polygonum convolvulus) [%] | Avena fatua (efficacy in %) (Avena fatua) [%] | Oryza sativa (efficacy in %) (Oryza sativa; application rate 5 g/ha) [%]
1 | COCCOC(=O)COc1ncc(F)cc1Sc1cc(-n2c(=O)cc(C(F)(F)F)n(C)c2=O)c(F)cc1Cl [I.31-1] | 100 | 100 | 100 | 80 | 100 | 100 | 100 | 100 | 100 | 90 | 100 | 20 | – | – | –
2 | CCOCCOC(=O)COc1ncccc1Oc1cc(-n2c(=O)cc(C(F)(F)F)n(C)c2=O)c(F)cc1Cl [I.15-2] | 100 | 100 | 100 | 90 | 100 | 100 | 100 | 100 | 100 | 100 | 100 | – | 100 | 90 | –
3 | CCS(=O)(=O)NCCOC(=O)COc1ncccc1Oc1cc(-n2c(=O)cc(C(F)(F)F)n(C)c2=O)c(F)cc1Cl [I.15-421] | 100 | 100 | 100 | 100 | 100 | 100 | 100 | 100 | 100 | 100 | 100 | – | 100 | 100 | –
4 | Cn1c(C(F)(F)F)cc(=O)n(-c2cc(Oc3cc(F)cnc3OCC(=O)OCC#N)c(Cl)cc2F)c1=O [I.36-176] | 90 | 100 | 100 | 80 | 100 | 100 | 100 | 100 | 90 | 100 | 100 | – | 100 | 80 | 20
5 | Cn1c(C(F)(F)F)cc(=O)n(-c2cc(Oc3cccnc3OCC(=O)OCC3CCCO3)c(Br)cc2F)c1=O (stereo not drawn) [I.16-71] | 100 | 100 | 100 | 90 | 100 | 100 | 100 | 100 | 100 | 100 | 100 | – | 100 | 90 | –
6 | Cn1c(C(F)(F)F)cc(=O)n(-c2cc(Sc3cccnc3OCC(=O)OC3COC3)c(Cl)cc2F)c1=O [I.1-115] | 100 | 100 | 100 | 80 | 100 | 100 | 100 | 100 | 100 | 100 | 100 | – | – | 80 | 20
